# Where “and” joins values, the source holds several entries; their conditions need not be identical. Identical values can stand only once.
# How the values were obtained:
# [1] = background statement, cited from earlier work
# [2] = system: heart transplants from Brown-Norway rats; experiment: Heart transplant acute rejection: graft survival and inflammation score; format: in vivo, Lewis Rats; conditions: for Graft survival / Inflammation score (Mean) (0-3): orotic acid 0 mg/kg/day; for Inflammation score (Mean) (0-3): 0 = no inflammation
# Description: Treatments included 0, 5, 10 or 15 mg/kg of leflunomide in combination with 0 or 100 mg/kg orotic acid.
# [3] = Leflunomide toxicity measured by hematocrit; format: in vivo, Lewis rats; conditions: for Hct Week 0 / Hct Week 1 / Hct Week 2 / Hct Week 3 / Hct Week 4: individual rat; for Hct Week 0: baseline hematocrit; for Hct Week 1: week 1 of therapy; for Hct Week 2: week 2 of therapy; for Hct Week 3: week 3 of therapy; for Hct Week 4: week 4 of therapy
# Description: The experiment of Example 2 was repeated in Lewis rats and the hematocrit measured weekly for four weeks. The rats receiving treatment were divided into five groups wherein each group received 30/mg/kg/day leflunomide, a toxic, high dose. Group I received leflunomide only. Group II received the leflunomide dose plus 36/mg/kg/day of sodium orotate; group III received the leflunomide dose plus 100 mg/kg/day of sodium orotate; group IV received the leflunomide dose plus 88 mg/kg/day of orotic acid; and group V received the leflunomide dose plus 250 mg/kg/day of uridine given IP. A baseline hematocrit was measured, and hematocrits of each rat were measured at weeks 1-4 post commencement of therapy.
smiles,measurement,setting,value
"CC(=O)OC[C@H]1O[C@@H](n2ccc(=O)[nH]c2=O)[C@H](OC(C)=O)[C@@H]1OC(C)=O [TAU, 2′, 3′, 5′-tri-O-acetyl uridine]",oral bioavailability,[1],orally bioavailable
"Cc1oncc1C(=O)Nc1ccc(C(F)(F)F)cc1 [leflunomide, N-(4-trifluoromethylphenyl)-5-methylisoxazol-4-carboxamide]",Graft survival,[2]; leflunomide 5 mg/kg/day,>30 days
same,Inflammation score (Mean) (0-3),[2]; leflunomide 5 mg/kg/day,2.0
same,Graft survival,[2]; leflunomide 10 mg/kg/day,>30 days
same,Inflammation score (Mean) (0-3),[2]; leflunomide 10 mg/kg/day,1.7
same,Graft survival,[2]; leflunomide 15 mg/kg/day,>30 days
same,Inflammation score (Mean) (0-3),[2]; leflunomide 15 mg/kg/day,1.5
same,Intensity of the rejection reaction (inflammation score),"[2]; leflunomide 5, 10, 15 mg/kg, dose-related",reduced the intensity of the rejection reaction
same,"Hct Week 4, group Mean","[3]; group mean, week 4",Mean: 23.8
same,Hct Week 0,[3]; listed as L 30,53 and 54 and 55 and 52
same,Hct Week 0,[3]; listed as L30,51 and 57
same,Hct Week 1,[3]; listed as L 30,53 and 55 and 49 and 50
same,Hct Week 1,[3]; listed as L30,47 and 52
same,Hct Week 2,[3]; listed as L 30,44 and 54 and 48 and 46
same,Hct Week 2,[3]; listed as L30,39 and 46
same,Hct Week 3,[3]; listed as L 30,41 and 37 (2×) and 33
same,Hct Week 3,[3]; listed as L30,31 and 33
same,Hct Week 4,[3]; listed as L 30,30 (2×) and 24 and 22
same,Hct Week 4,[3]; listed as L30,17 and 20
O=C(O)c1cc(=O)[nH]c(=O)[nH]1 [orotic acid],Effect of orotic acid on efficacy of leflunomide to reduce the rejection reaction,[2]; orotic acid 100 mg/kg with leflunomide 5-15 mg/kg,did not significantly affect the efficacy of leflunomide
same,bioavailability,[1]; no test described,approximately 50%

# — patent US20060024376A1, “Methods and compositions for reducing toxicity associated with leflunomide treatment” (The University of Chicago, priority 2004, published 2006)
